In patent US6489295B1, “Antagonists of intestinotrophic GLP-2 peptides” (1149336 Ontario Inc., priority 1996, dated 2002):
Non-standard residues stand in square brackets, D forms with d. Residues, ends and D or L forms follow the SMILES beside them. No end group written: not given here. pY = N[C@@H](Cc1ccc(OP(=O)(O)O)cc1)C(=O)O

molecular target: T1, human placental DPP-IV (Homo sapiens, UniProt P27487); experiment: Assay for resistance to dipeptidyl peptidase IV; details: 24 hours at 37° C., RP-HPLC
T1 sequence (P27487 whole entry): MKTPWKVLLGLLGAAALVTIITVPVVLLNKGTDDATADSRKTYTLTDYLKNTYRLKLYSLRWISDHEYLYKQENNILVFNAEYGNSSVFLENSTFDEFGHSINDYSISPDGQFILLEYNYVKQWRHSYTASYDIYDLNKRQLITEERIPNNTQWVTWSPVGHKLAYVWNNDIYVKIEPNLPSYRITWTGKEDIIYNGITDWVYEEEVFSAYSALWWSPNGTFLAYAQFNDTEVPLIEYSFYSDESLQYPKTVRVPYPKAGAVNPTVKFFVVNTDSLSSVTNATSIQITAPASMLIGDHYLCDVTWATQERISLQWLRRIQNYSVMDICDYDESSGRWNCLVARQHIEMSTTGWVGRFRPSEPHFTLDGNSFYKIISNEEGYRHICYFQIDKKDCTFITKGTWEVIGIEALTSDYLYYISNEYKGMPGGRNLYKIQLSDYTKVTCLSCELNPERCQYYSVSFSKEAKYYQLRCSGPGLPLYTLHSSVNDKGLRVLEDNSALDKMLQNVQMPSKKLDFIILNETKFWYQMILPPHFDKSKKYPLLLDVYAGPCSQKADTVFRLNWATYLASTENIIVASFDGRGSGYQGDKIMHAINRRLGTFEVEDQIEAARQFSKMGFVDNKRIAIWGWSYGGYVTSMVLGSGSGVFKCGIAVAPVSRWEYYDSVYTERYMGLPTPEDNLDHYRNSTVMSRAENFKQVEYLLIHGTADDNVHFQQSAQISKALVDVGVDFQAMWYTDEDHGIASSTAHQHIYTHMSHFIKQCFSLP
Protocol: To perform the assay, 2.5 microliters (μl) of a solution of human placental DPP-IV (Calbiochem, La Jolla, Calif., cat. # 317624) containing 0.125 milliunits (mU) of enzyme in 50% glycerol, mM Tris, pH 7.8, EDTA and 0.02% NaN3 was added to 50 μl of a solution of the test peptide prepared at a concentration of 0.2 mg/ml in PBS at pH 7.4. The mixture was incubated at 37° C. in a circulating water bath for 24 hours. The incubation was quenched by the addition of 50 μl of a solution of diprotin A prepared at a concentration of 4 mg/ml in PBS. Each peptide was tested in duplicate.
Each sample was analyzed by reverse-phase (RP) HPLC as follows: 90 μl of the quenched incubation mixture was injected onto a Rainin Dynamax 300 Å, C18, 5 micron, 4.6×250 millimeter column. The samples were eluted with 0.1% trifluoroacetic acid (TFA) in water modified with 0.1% acetonitrile using a linear gradient and a flow rate of 1 ml per minute. Sample components were detected at 214 nanometers (nm). The extent of cleavage was measured by relative integration of the peak corresponding to the cleavage product compared to that of the remaining undigested parent peptide.

Row | Compound | cleavage products detected after DPP-IV incubation
1 | [Gly^2]ratGLP-2 | No cleavage products were detected
2 | [D-Ala^2]ratGLP-2 | No cleavage products were detected

test system: intestinotrophic activity of rat GLP-2; experiment: GLP-2 antagonist assessment by co-administration into mice with GLP-2 (small bowel weight); format: in vivo; details: CD1 female mice, antagonist to GLP-2 ratio 4:1 by weight (12.5 μg/2.5 μg rat GLP-2) s.c. twice a day, 10-14 days
Protocol: The candidate peptide antagonist and rat GLP-2 were dissolved in PBS to give a final ratio of 25 μg antagonist/2.5 μg GLP-2 per 0.5 ml phosphate buffered saline solution (for a 10:1 ratio), or […] antagonist/2.5 μg GLP-2 per 0.5 ml phosphate buffered saline solution (for a 4:1 ratio), as indicated. The antagonist/GLP-2 mixture was administered to 6-8 week old CD1 female mice subcutaneously, with the amount of peptide injected being 25 μg antagonist/2.5 μg GLP-2 in 0.5 ml twice a day, or 12.5 μg antagonist/2.5 μg GLP-2 in 0.5 ml twice a day. After 10-14 days, peptide-injected and control (saline-injected) mice were sacrificed, and small bowel weights were determined.

Row | Compound | % Antagonism
3 | ratGLP-2(3-33) | 33%

same assay, conditions: CD1 female mice, antagonist to GLP-2 ratio 10:1 by weight (25 μg/2.5 μg rat GLP-2) s.c. twice a day, 10-14 days

Row | Compound | % Antagonism
4 | ratGLP-2(4-33) | 32%
5 | ratGLP-2(2-33) | 42%
6 | ratGLP-2(5-33) | 16%

molecular target: T1, human placental DPP-IV; experiment: not given; details: not given

Row | cleavage products detected after DPP-IV incubation | Compound
7 | No cleavage products were detected | HLDGSFSDEMNTILDNLAARDFINWLIQTKITD [[Leu^2]GLP-2]
8 | No cleavage products were detected | HGDGSFSDEMNTILDNLAARDFINWLIQAKITD [[Gly^2, Ala^29]GLP-2]
9 | No cleavage products were detected | HGDGSFSDEMNTILDNLAARDFINWLIQTKITA [[Gly^2, Ala^33]GLP-2]
10 | No cleavage products were detected | HEDGSFSDEMNTILDNLAARDFINWLIQTKITD [[Glu^2]GLP-2]
11 | No cleavage products were detected | HWDGSFSDEMNTILDNLAARDFINWLIQTKITD [[Trp^2]GLP-2]
12 | No cleavage products were detected | CC[C@H](C)[C@H](NC(=O)[C@H](Cc1ccccc1)NC(=O)[C@H](CC(=O)O)NC(=O)[C@H](CCCNC(=N)N)NC(=O)[C@H](C)NC(=O)[C@H](C)NC(=O)[C@H](CC(C)C)NC(=O)[C@H](CC(N)=O)NC(=O)[C@H](CC(=O)O)NC(=O)[C@H](CC(C)C)NC(=O)[C@@H](NC(=O)[C@@H](NC(=O)[C@H](CC(N)=O)NC(=O)[C@H](CCSC)NC(=O)[C@H](CCC(=O)O)NC(=O)[C@H](CC(=O)O)NC(=O)[C@H](CO)NC(=O)[C@H](Cc1ccccc1)NC(=O)[C@H](CO)NC(=O)CNC(=O)[C@H](CC(=O)O)NC(=O)[C@H](Cc1ccc(OP(=O)(O)O)cc1)NC(=O)[C@@H](N)Cc1c[nH]cn1)[C@@H](C)O)[C@@H](C)CC)C(=O)N[C@@H](CC(N)=O)C(=O)N[C@@H](Cc1c[nH]c2ccccc12)C(=O)N[C@@H](CC(C)C)C(=O)N[C@H](C(=O)N[C@@H](CCC(N)=O)C(=O)N[C@H](C(=O)N[C@@H](CCCCN)C(=O)N[C@H](C(=O)N[C@H](C(=O)N[C@@H](CC(=O)O)C(=O)O)[C@@H](C)O)[C@@H](C)CC)[C@@H](C)O)[C@@H](C)CC [[PO3-Tyr^2]GLP-2] (H-H[pY]DGSFSDEMNTILDNLAARDFINWLIQTKITD-OH; N-terminus and C-terminus assumed)
13 | No cleavage products were detected | HGDGSFSDEMNTILANLAARDFINWLIQTKITD [[Gly^2, Ala^15]GLP-2]
14 | No cleavage products were detected | HGDGSFSDEMNTILDNLAARDAINWLIQTKITD [[Gly^2, Ala^22]GLP-2]
15 | No cleavage products were detected | HGDGSFSDEMNTILDNLAARDFINWLIQTKIAD [[Gly^2, Ala^32]GLP-2]

The remaining lines, values behind:

Row | Compound | cleavage products detected after DPP-IV incubation
16 | HRDGSFSDEMNTILDNLAARDFINWLIQTKITD [[Arg^2]GLP-2] | No cleavage products were detected
17 | HCDGSFSDEMNTILDNLAARDFINWLIQTKITD [[Cys^2]GLP-2] | No cleavage products were detected
